From ChEMBL document CHEMBL3745623, “Polyphenols isolated from leaves of Vitis thunbergii var. taiwaniana regulate APP related pathway” (Bioorg Med Chem Lett, 2016)
Activity calls are given as the source filed them. The rule behind the calls is not given here.

Columns and labels:
N2a [1] = test: Upregulation of soluble APP alpha protein level in mouse N2A cells expressing human APP695 at 10 uM after 10 hrs by Western blot analysis; assay type: functional, cell-based
N2a [2] = test: Effect on immature ADAM10 level in mouse N2A cells expressing human APP695 at 8 uM after 10 hrs by Western blot analysis; assay type: functional, cell-based
N2a [3] = test: Upregulation of soluble APP alpha protein level in mouse N2A cells expressing human APP695 at 8 uM after 10 hrs by Western blot analysis; assay type: functional, cell-based
N2a [4] = test: Effect on full length APP level in mouse N2A cells expressing human APP695 at 8 uM after 10 hrs by Western blot analysis; assay type: functional, cell-based
[5] = biological target: Beta-secretase 1 (Mus musculus) (UniProt P56818); test: Inhibition of BACE1 in mouse N2A cells expressing human APP695 assessed as decrease in soluble APP beta protein level at 8 uM after 10 hrs by Western blot analysis; assay type: cell-based
Beta-secretase 1 (Mus musculus), sequence (P56818 whole entry): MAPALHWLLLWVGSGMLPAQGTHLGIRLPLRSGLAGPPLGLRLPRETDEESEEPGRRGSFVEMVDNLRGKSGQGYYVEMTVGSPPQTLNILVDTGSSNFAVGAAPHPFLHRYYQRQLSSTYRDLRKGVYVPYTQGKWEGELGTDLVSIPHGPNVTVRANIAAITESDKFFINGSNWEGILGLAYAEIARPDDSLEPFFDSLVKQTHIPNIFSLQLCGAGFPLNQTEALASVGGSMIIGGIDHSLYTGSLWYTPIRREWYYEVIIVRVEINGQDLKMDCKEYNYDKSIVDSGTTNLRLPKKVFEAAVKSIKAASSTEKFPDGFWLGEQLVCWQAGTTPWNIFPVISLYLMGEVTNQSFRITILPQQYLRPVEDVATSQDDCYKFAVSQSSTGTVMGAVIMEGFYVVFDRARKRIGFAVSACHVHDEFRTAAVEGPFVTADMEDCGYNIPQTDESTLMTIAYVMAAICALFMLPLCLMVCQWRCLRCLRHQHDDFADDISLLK

N2a [6] = test: Decrease in amyloid beta40 level in mouse N2A cells expressing human APP695 after 10 hrs by sandwich ELISA; assay type: functional, cell-based
[7] = biological target: Disintegrin and metalloproteinase domain-containing protein 17 (Homo sapiens) (UniProt P78536); test: Activation of TACE in human SH-SY5Y cells at 8 uM after 10 hrs by fluorescence assay; assay type: cell-based
Disintegrin and metalloproteinase domain-containing protein 17 (Homo sapiens), sequence (P78536 whole entry, the tested form may be a part): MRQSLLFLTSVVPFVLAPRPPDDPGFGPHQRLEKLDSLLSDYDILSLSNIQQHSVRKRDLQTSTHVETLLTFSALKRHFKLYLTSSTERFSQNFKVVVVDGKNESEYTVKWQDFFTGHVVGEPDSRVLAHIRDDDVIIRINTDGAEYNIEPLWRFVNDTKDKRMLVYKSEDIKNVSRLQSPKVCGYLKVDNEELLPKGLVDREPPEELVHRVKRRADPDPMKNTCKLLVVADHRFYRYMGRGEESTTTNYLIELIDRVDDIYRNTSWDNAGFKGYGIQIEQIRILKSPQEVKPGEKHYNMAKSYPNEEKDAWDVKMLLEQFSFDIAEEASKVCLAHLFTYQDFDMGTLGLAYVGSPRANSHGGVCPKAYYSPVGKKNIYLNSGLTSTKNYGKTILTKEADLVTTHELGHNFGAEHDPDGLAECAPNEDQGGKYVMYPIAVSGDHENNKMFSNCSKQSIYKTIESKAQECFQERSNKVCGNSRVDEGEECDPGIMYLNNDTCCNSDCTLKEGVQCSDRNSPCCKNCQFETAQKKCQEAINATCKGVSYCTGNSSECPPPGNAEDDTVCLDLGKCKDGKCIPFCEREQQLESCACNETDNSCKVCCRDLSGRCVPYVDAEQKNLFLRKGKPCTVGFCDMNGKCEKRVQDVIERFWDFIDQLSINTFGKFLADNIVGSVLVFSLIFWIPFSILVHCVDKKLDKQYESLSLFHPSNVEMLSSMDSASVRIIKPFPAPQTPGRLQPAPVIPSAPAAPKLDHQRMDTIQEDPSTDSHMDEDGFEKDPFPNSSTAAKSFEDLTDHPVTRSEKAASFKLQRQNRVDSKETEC

N2a [8] = test: Decrease in amyloid beta42 level in mouse N2A cells expressing human APP695 after 10 hrs by sandwich ELISA; assay type: functional, cell-based
N2a [9] = test: Downregulation of N-terminal fragment of presenilin1 level in mouse N2A cells at 8 uM after 10 hrs by Western blot analysis; assay type: functional, cell-based
N2a [10] = test: Inhibition of gamma-secretase in mouse N2A cells transfected with NotchdeltaE assessed as reduction in Notch intracellular domain level at 8 uM after 10 hrs by densitometry analysis; assay type: cell-based
N2a [11] = test: Cytotoxicity against mouse N2A cells expressing human APP695 assessed as reduction in cell viability at 16 to 100 uM after 10 hrs by CCK-8 assay; assay type: cell-based
N2a [12] = test: Effect on mature ADAM10 level in mouse N2A cells expressing human APP695 at 8 uM after 10 hrs by Western blot analysis; assay type: functional, cell-based
N2a [13] = test: Effect on BACE1 level in mouse N2A cells expressing human APP695 at 8 uM after 10 hrs by Western blot analysis; assay type: functional, cell-based
[14] = biological target: Beta-secretase 1 (Homo sapiens) (UniProt P56817); test: Inhibition of BACE1 in human SH-SY5Y cells at 8 uM after 10 hrs by fluorescence plate reader analysis; assay type: cell-based
Beta-secretase 1 (Homo sapiens), sequence (P56817 whole entry): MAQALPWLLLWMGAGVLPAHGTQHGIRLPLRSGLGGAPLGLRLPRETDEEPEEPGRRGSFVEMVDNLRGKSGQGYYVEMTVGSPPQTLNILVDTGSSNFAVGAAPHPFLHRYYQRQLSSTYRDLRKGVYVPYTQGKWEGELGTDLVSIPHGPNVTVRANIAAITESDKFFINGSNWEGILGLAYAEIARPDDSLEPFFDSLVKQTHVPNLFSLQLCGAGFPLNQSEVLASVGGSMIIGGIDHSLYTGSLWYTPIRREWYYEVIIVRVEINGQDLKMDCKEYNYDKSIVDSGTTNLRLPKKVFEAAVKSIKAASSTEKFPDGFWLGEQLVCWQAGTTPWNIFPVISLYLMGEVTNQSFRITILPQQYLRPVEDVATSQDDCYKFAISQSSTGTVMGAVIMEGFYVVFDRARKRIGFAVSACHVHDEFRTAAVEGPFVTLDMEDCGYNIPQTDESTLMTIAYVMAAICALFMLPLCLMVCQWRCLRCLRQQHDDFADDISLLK

N2a [15] = test: Effect on ADAM17 level in mouse N2A cells expressing human APP695 at 8 uM after 10 hrs by Western blot analysis; assay type: functional, cell-based
N2a [16] = test: Cytotoxicity against mouse N2A cells expressing human APP695 assessed as reduction in cell viability up to 16 uM after 10 hrs by CCK-8 assay; assay type: cell-based
N2a [17] = test: Decrease in amyloid beta40 level in mouse N2A cells expressing human APP695 at 10 uM after 10 hrs by sandwich ELISA; assay type: functional, cell-based
[18] = biological target: Beta-secretase 1 (Mus musculus) (UniProt P56818); test: Inhibition of BACE1 in mouse N2A cells at 8 uM after 10 hrs by fluorescence plate reader analysis; assay type: cell-based
N2a [19] = test: Cytotoxicity against mouse N2A cells expressing human APP695 assessed as reduction in cell viability at 8 to 100 uM after 10 hrs by CCK-8 assay; assay type: cell-based
N2a [20] = test: Cytotoxicity against mouse N2A cells expressing human APP695 assessed as reduction in cell viability up to 8 uM after 10 hrs by CCK-8 assay; assay type: cell-based
[21] = biological target: Beta-secretase 1 (Mus musculus) (UniProt P56818); test: Inhibition of BACE1 in mouse N2A cells expressing human APP695 assessed as reduction in amyloid beta40 level at 10 uM after 10 hrs by sandwich ELISA; assay type: cell-based
[22] = biological target: Beta-secretase 1 (Mus musculus) (UniProt P56818); test: Inhibition of BACE1 in mouse N2A cells expressing human APP695 assessed as reduction in amyloid beta42 level after 10 hrs by sandwich ELISA; assay type: cell-based
[23] = biological target: Beta-secretase 1 (Mus musculus) (UniProt P56818); test: Inhibition of BACE1 in mouse N2A cells expressing human APP695 assessed as reduction in amyloid beta40 level after 10 hrs by sandwich ELISA; assay type: cell-based

inhibition [5] | Activity [7] | inhibition [14] | inhibition [18] | SMILES | Activity (N2a [2]) | Activity (N2a [3]) | Activity (N2a [4]) | Activity (N2a [6]) | Activity (N2a [8]) | Activity (N2a [9]) | inhibition (N2a [10]) | Activity (N2a [12]) | Activity (N2a [13]) | Activity (N2a [15]) | Activity (N2a [17]) | Activity (N2a [19]) | Activity (N2a [20]) | other results
 |  |  |  | C[C@@H](NC(=O)c1cc(C(=O)N[C@@H](Cc2ccccc2)[C@H](O)CNC2CC2)cc(N(C)S(C)(=O)=O)c1)c1ccccc1 |  |  |  |  |  |  |  |  |  |  |  |  |  | Activity (N2a [1]): Active
inactive | inactive | Active | Active | Oc1ccc([C@@H]2c3c(O)cc(O)cc3[C@@H]3c4c(cc(O)c5c4[C@H]2[C@@H](c2cc(O)cc(O)c2)[C@@H]5c2ccc(O)cc2)O[C@H]3c2ccc(O)cc2)cc1 | inactive | Active | inactive | Dose-dependent effect | Dose-dependent effect | inactive | inactive | inactive | inactive | inactive | Active |  |  | Activity (N2a [11]): Dose-dependent effect; Activity (N2a [16]): Non-toxic
inactive | Active | Active | inactive | Oc1ccc([C@H]2c3c(O)cc(O)cc3[C@H]3c4c(cc(O)cc4[C@H]4[C@H](c5ccc(O)cc5)c5cc(O)cc(O)c5[C@H]24)O[C@@H]3c2ccc(O)cc2)cc1 | inactive | Active | inactive | Dose-dependent effect | Dose-dependent effect | inactive | inactive | inactive | inactive | inactive | Active | Dose-dependent effect | Non-toxic | 
Active | inactive | Active | Active | Oc1ccc([C@@H]2c3c(O)cc4c5c3[C@@H]([C@@H](c3ccc(O)cc3)c3c(O)cc(O)cc3[C@@H]5[C@@H](c3ccc(O)cc3)O4)[C@H]2c2cc(O)cc(O)c2)cc1 [AMPELOPSIN C] | inactive | Active | inactive |  |  | inactive | inactive | inactive | inactive | inactive |  | Dose-dependent effect | Non-toxic | inhibition [21]: Active; inhibition [22]: Dose-dependent effect; inhibition [23]: Dose-dependent effect
